Source: patent US7473790B2 (Pfizer Inc., priority 2003, dated 2009)

What follows are compounds tested against T1, HCV polymerase (Hepatitis C virus genotype 1b, UniProt P26663) (assay: HCV polymerase primer/template-directed transcription assay (32P-GTP incorporation, filter binding)). Settings: recombinant HCV polymerase; 30 minutes at 30° C.; concentration giving 50% inhibition of polymerase-directed transcription; read-out: IC50.
T1 construct: 2.5 pmoles (0.15 μg) HCV polymerase protein in a final volume of 75 μL
Type: biochemical
Method: The compounds described herein were tested for activity with HCV polymerase. Recombinant HCV polymerase was tested for its ability to perform primer/template-directed transcription in assays that contained 30 mM tris-HCl pH 7.2, 10 mM MgCl2, 20 mM NaCl, 1 mM Dithiothreitol (DTT), 0.05% Tween-20, 1% glycerol, 5 pmoles biotin-dG12 (primer), 0.5 pmoles poly(rC)300 (template), 1 μM GTP, 0.1-0.3 uCi α-^32P-GTP, and 2.5 pmoles (0.15 μg) HCV polymerase protein in a final volume of 75 μL. Reactions were initiated by addition of enzyme and incubated 30 minutes at 30° C. Reactions were stopped by addition of 33 mM EDTA, and polynucleotide products were collected by filtration through Diethylaminoethyl (DE) Filtermat papers (Wallac). Unincorporated triphosphate was removed by washing the filters with 5% dibasic sodium phosphate. The filters were counted in a Packard Tri-Lux Microbeta scintillation counter (Packard Bioscience, Meriden, Conn.). Compounds to be tested were added at various concentrations, e.g., 1 μm to 50 μm, from stocks in 10% DMSO-water (final DMSO is 1% in reaction).
IC50 values were estimated from the primary cpm data (collected in triplicate) using the formula: cpm (I)=cpm(no inhibitor)(1−([I]/([I]+IC50))). An IC50 value represents the concentration (in μM) of a compound that provides 50% inhibition of polymerase-directed transcription in the above assay. A percent inhibition value is expressed for a compound where it was impractical to calculate an IC50 value with available data. If the IC50 estimated by the above equation was less than 200 nM, it was recalculated using the following equation, which takes into account the enzyme concentration (30 nM) in the assay: cpm(I)=cpm(no inhibitor)(1−((((I+IC50+30e−9)−sqrt(((I+IC50+30e−9)^2)−4×30e−9×I)))/((2)(30e−9))). Curve fitting was performed using the program KaleidaGraph (Synergy Software, Reading, Pa.).

T1 sequence (P26663 2420-3010): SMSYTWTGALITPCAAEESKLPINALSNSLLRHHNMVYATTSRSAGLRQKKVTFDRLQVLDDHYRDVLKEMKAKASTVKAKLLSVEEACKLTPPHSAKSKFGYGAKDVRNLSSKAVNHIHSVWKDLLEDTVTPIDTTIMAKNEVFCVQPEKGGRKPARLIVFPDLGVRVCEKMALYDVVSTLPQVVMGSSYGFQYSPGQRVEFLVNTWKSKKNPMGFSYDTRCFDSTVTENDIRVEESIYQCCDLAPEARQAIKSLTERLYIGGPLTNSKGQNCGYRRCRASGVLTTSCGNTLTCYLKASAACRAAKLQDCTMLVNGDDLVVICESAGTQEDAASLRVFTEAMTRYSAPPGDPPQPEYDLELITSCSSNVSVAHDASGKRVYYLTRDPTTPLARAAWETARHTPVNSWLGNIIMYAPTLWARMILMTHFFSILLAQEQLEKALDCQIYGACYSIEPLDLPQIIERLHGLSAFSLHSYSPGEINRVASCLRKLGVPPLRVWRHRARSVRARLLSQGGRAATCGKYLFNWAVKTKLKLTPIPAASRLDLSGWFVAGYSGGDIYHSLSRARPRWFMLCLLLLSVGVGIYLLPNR

SMILES | IC50 [nM]
CC(C)(C#N)c1ccc(CCC2(C3CCCC3)CC(=O)C(Cc3nc4ncccn4n3)C(=O)O2)cc1F (racemic) [A(104), 2-{4-[2-(2-Cyclopentyl-4,6-dioxo-5-[1,2,4]triazolo[1,5-a]pyrimidin-2-ylmethyl-tetrahydro-pyran-2-yl)-ethyl]-2-fluoro-phenyl}-2-methyl-propionitrile] | 8
Cc1cnc2nc(CC3C(=O)CC(CCc4ccc(C(C)(C)C#N)c(F)c4)(C4CCCC4)OC3=O)nn2c1 (racemic) [A(108), 2-(4-{2-[2-Cyclopentyl-5-(6-methyl-[1,2,4]triazolo[1,5-a]pyrimidin-2-ylmethyl)-4,6-dioxo-tetrahydro-pyran-2-yl]-ethyl}-2-fluoro-phenyl)-2-methyl-propionitrile] | 3
Cc1cc(C)n2nc(CC3=C(O)CC(CCc4ccc(C5(C#N)CC5)c(Cl)c4)(C4CCCC4)OC3=O)nc2n1 (racemic) [A(200), 1-(2-Chloro-4-{2-[2-cyclopentyl-5-(5,7-dimethyl-[1,2,4]triazolo[1,5-a]pyrimidin-2-ylmethyl)-4-hydroxy-6-oxo-3,6-dihydro-2H-pyran-2-yl]-ethyl}-phenyl)-cyclopropanecarbonitrile] | 5
Cc1cc(C)n2nc(CC3=C(O)CC(CCc4ccc(C5(C#N)CC5)c(Cl)c4)(C4CCCC4)OC3=O)nc2n1 (racemic) [A(201), 1-(2-Chloro-4-{2-[2-cyclopentyl-5-(5,7-dimethyl-[1,2,4]triazolo[1,5a]pyrimidin 2-ylmethyl)-4-hydroxy-6-oxo-3,6-dihydro-2H-pyran-2-yl]-ethyl}-phenyl)-cyclopropanecarbonitrile] | 12
Cc1cnc2nc(CC3=C(O)CC(CCc4ccc(C(C)(C)C#N)c(Cl)c4)(C4CCCC4)OC3=O)nn2c1 (racemic) [A(202), 2-(2-Chloro-4-{2-[2-cyclopentyl-4-hydroxy-5-(6-methyl-[1,2,4]triazolo[1,5-a]pyrimidin-2-ylmethyl)-6-oxo-3,6-dihydro-2H-pyran-2-yl]-ethyl}-phenyl)-2-methyl-propionitrile] | 12
Cc1cnc2nc(CC3=C(O)CC(CCc4ccc(C(C)(C)C#N)c(Cl)c4)(C4CCCC4)OC3=O)nn2c1 (racemic) [A(203), 2-(2-Chloro-4-{2-[2-cyclopentyl-4-hydroxy-5-(6-methyl-[1,2,4]triazolo[1,5-a]pyrimidin-2-ylmethyl)-6-oxo-3,6-dihydro-2H-pyran-2-yl]-ethyl}-phenyl)-2-methyl-propionitrile] | 20
CCc1cc(CCC2(C3CCCC3)CC(O)=C(Cc3nc4ncc(Cl)cn4n3)C(=O)O2)c(OC)cc1O (racemic) [A(210), 3-[(6-chloro[1,2,4]triazolo[1,5-a]pyrimidin-2-yl)methyl]-6-cyclopentyl-6-[2-(5-ethyl-4-hydroxy-2-methoxyphenyl)ethyl]-4-hydroxy-5,6-dihydro-2H-pyran-2-one] | 2
CCc1cc(CCC2(C3CCCC3)CC(O)=C(Cc3nc4ncc(Cl)cn4n3)C(=O)O2)c(OC)cc1O (racemic) [A(211), (−)-3-[(6-chloro[1,2,4]triazolo[1,5-a]pyrimidin-2-yl)methyl]-6-cyclopentyl-6-[2-(5-ethyl-4-hydroxy-2-methoxyphenyl)ethyl]-4-hydroxy-5,6-dihydro-2H-pyran-2-one] | 4
CCc1cc(CCC2(C3CCCC3)CC(O)=C(Cc3nc4ncc(C)cn4n3)C(=O)O2)c(OC)cc1O (racemic) [A(212), 3-[(6-methyl[1,2,4]triazolo[1,5-a]pyrimidin-2-yl)methyl]-6-cyclopentyl-6-[2-(5-ethyl-4-hydroxy-2-methoxyphenyl)ethyl]-4-hydroxy-5,6-dihydro-2H-pyran-2-one] | 4
CCc1cc(CCC2(C3CCCC3)CC(O)=C(Cc3nc4ncc(C)cn4n3)C(=O)O2)c(OC)cc1O (racemic) [A(213), 3-[(6-methyl[1,2,4]triazolo[1,5-a]pyrimidin-2-yl)methyl]-6-cyclopentyl-6-[2-(5-ethyl-4-hydroxy-2-methoxyphenyl)ethyl]-4-hydroxy-5,6-dihydro-2H-pyran-2-one] | 4.5
O=C1OC(CCc2ccc(O)c(CC(F)(F)F)c2)(C2CCCC2)CC(O)=C1Cc1nc2ncc(Cl)cn2n1 (racemic) [A(223), 3-[(6-chloro[1,2,4]triazolo[1,5-a]pyrimidin-2-yl)methyl]-6-cyclopentyl-4-hydroxy-6-{2-[4-hydroxy-3-(2,2,2-trifluoroethyl)phenyl]ethyl}-5,6-dihydro-2H-pyran-2-one] | 5
O=C1OC(CCc2ccc(O)c(CC(F)(F)F)c2)(C2CCCC2)CC(O)=C1Cc1nc2ncc(Cl)cn2n1 (racemic) [A(227), 3-[(6-chloro[1,2,4]triazolo[1,5-a]pyrimidin-2-yl)methyl]-6-cyclopentyl-4-hydroxy-6-{2-[4-hydroxy-3-(2,2,2-trifluoroethyl)phenyl]ethyl}-5,6-dihydro-2H-pyran-2-one] | 10
CCC(C#N)(CC)c1c(F)cc(CCC2(C3CCCC3)CC(O)=C(Cc3nc4ncc(C)cn4n3)C(=O)O2)cc1F (racemic) [A(262), 2-(4-{2-[2-Cyclopentyl-4-hydroxy-5-(6-methyl-[1,2,4]triazolo[1,5-a]pyrimidin-2-ylmethyl)-6-oxo-3,6-dihydro-2H-pyran-2-yl]-ethyl}-2,6-difluoro-phenyl)-2-ethyl-butyronitrile] | 6
CCC(C#N)(CC)c1ccc(CCC2(C3CCCC3)CC(O)=C(Cc3nc4ncc(Cl)cn4n3)C(=O)O2)cc1F (racemic) [A(265), 2-(4-{2-[5-(6-Chloro-[1,2,4]triazolo[1,5-a]pyrimidin-2-ylmethyl)-2-cyclopentyl-4-hydroxy-6-oxo-3,6-dihydro-2H-pyran-2-yl]-ethyl}-2-fluoro-phenyl)-2-ethyl-butyronitrile] | 4
CCc1cc(CCC2(C3CCCC3)CC(O)=C(Cc3nc4ncc(Cl)cn4n3)C(=O)O2)ccc1O (racemic) [A(271), 3-(6-Chloro-[1,2,4]triazolo[1,5-a]pyrimidin-2-ylmethyl)-6-cyclopentyl-6-[2-(3-ethyl-4-hydroxy-phenyl)-ethyl]-4-hydroxy-5,6-dihydro-pyran-2-one] | 6
CCc1cc(CCC2(C3CCCC3)CC(O)=C(Cc3nc4ncc(Cl)cn4n3)C(=O)O2)ccc1O (racemic) [A(272), 3-(6-Chloro-[1,2,4]triazolo[1,5-a]pyrimidin-2-ylmethyl)-6-cyclopentyl-6-[2-(3-ethyl-4-hydroxy-phenyl)-ethyl]-4-hydroxy-5,6-dihydro-pyran-2-one] | 6
CCc1cc(CCC2(C3CCCC3)CC(O)=C(Cc3nc4nc(C)cc(C)n4n3)C(=O)O2)c(OC)cc1O (single isomer, unassigned) [A(154), 6-Cyclopentyl-3-(5,7-dimethyl-[1,2,4]triazolo[1,5-a]pyrimidin-2-ylmethyl)-6-[2-(5-ethyl-4-hydroxy-2-methoxy-phenyl)-ethyl]-4-hydroxy-5,6-dihydro-pyran-2-one] | 5
CC(C)(C#N)c1ccc(CCC2(C3CCCC3)CC(O)=C(Cc3nc4ncc(Cl)cn4n3)C(=O)O2)cc1Cl (single isomer, unassigned) [A(204), 2-(2-Chloro-4-{2-[5-(6-chloro-[1,2,4]triazolo[1,5-a]pyrimidin-2-ylmethyl)-2-cyclopentyl-4-hydroxy-6-oxo-3,6-dihydro-2H-pyran-2-yl]-ethyl}-phenyl)-2-methyl-propionitrile] | 17
CC(C)(C#N)c1ccc(CCC2(C3CCCC3)CC(O)=C(Cc3nc4ncc(Cl)cn4n3)C(=O)O2)cc1Cl (single isomer, unassigned) [A(205), 2-(2-Chloro-4-{2-[5-(6-chloro-[1,2,4]triazolo[1,5-a]pyrimidin-2-ylmethyl)-2-cyclopentyl-4-hydroxy-6-oxo-3,6-dihydro-2H-pyran-2-yl]-ethyl}-phenyl)-2-methyl-propionitrile] | 1
CCc1cc(CCC2(C3CCCC3)CC(O)=C(Cc3nc4ncccn4n3)C(=O)O2)c(OC)cc1O (single isomer, unassigned) [A(208), 6-cyclopentyl-6-[2-(5-ethyl-4-hydroxy-2-methoxyphenyl)ethyl]-4-hydroxy-3-([1,2,4]triazolo[1,5-a]pyrimidin-2-ylmethyl)-5,6-dihydro-2H-pyran-2-one] | 7
CCc1cc(CCC2(C3CCCC3)CC(O)=C(Cc3nc4ncccn4n3)C(=O)O2)c(OC)cc1O (single isomer, unassigned) [A(209), 6-cyclopentyl-6-[2-(5-ethyl-4-hydroxy-2-methoxyphenyl)ethyl]-4-hydroxy-3-([1,2,4]triazolo[1,5-a]pyrimidin-2-ylmethyl)-5,6-dihydro-2H-pyran-2-one] | 50
CC(C)Oc1ccc(CCC2(C3CCCC3)CC(=O)CC(=O)O2)cc1F (single isomer, unassigned) [J(1), 6-cyclopentyl-6-[2-(3-fluoro-4-isopropoxyphenyl)ethyl]dihydro-2H-pyran-2,4(3H)-dione] | 4400
